Measured values from patent US10688200B2, “Urea-based prostate specific membrane antigen (PSMA) inhibitors for imaging and therapy” (Five Eleven Pharma Inc., priority 2015, dated 2020).

Key:
PSMA [1] = biological target: T1, PSMA (Homo sapiens, UniProt Q04609); test: In vitro competitive binding assay to determine IC50 to PSMA; settings: LNCaP cells, [125I]MIP-1095 radioligand, 37° C. 1 h, mean±SD (n=4); read-out: PSMA binding affinities of cold ligands, IC50
T1 construct: 100 μL of freshly harvested PSMA cells; endogenous in cells; host or cells: 'PSMA cells' in the method
T1 sequence (Q04609 whole entry): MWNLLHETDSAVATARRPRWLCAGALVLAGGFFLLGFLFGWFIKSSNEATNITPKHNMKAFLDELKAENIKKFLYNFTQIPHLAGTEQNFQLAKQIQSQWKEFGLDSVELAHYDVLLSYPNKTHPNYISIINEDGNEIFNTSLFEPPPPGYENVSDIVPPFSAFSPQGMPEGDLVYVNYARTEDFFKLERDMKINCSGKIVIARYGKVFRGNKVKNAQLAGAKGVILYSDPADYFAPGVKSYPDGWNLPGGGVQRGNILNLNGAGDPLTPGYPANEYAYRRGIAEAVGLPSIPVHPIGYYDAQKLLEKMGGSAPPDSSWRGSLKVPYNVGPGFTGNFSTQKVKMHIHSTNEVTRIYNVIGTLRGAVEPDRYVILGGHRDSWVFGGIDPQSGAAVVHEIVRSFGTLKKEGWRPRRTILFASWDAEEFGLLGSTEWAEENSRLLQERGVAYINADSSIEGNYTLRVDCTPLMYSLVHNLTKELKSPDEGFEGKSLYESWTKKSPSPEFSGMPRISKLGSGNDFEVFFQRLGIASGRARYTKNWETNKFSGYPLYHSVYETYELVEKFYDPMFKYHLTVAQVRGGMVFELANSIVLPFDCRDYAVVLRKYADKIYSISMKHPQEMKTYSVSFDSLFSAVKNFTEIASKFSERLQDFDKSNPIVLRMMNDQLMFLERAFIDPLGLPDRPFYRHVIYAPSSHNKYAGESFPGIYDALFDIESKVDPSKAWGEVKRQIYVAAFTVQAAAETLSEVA
Procedure: In Vitro Competitive Binding Assay to Determine IC50 to PSMA
In order to determine the binding affinity, in vitro competitive binding assays were performed. The LNCaP cells were incubated with 150,000 cpm of [^125I]MIP-1095 in the presence of 10 different concentrations of competing drugs. After incubation at 37° C. for 1 h, the bound and free radioactivity were separated by vacuum filtration through GF/B filter paper using a Brandel M-24R cell harvester followed by washing twice. Non-specific binding was defined with 10 μM PMPA. The cell bound radioactivity was measured with a gamma counter, 2470 Wizard^2 (Perkin-Elmer, IL). The IC50 values were calculated by fitting the data using a nonlinear regression algorithm (GraphPad Software).
The PSMA binding affinities were determined in a competitive binding assay using LNCaP human prostate carcinoma cells and the known high affinity PSMA ligand, [^125I]MIP-1095 as the radioligand. Data are expressed as mean±SD (n=4).

PSMA [2] = biological target: T1, PSMA; test: In vitro binding signals of 68Ga labeled ligands in LNCaP tumor homogenates; settings: Ga-68 radiolabeled ligands; for Total binding (TB): 37° C. 60 min; for Nonspecific binding (NSB): with 1a (PSMA11) 10 μM

Row | SMILES | IC50 (PSMA [1]) | Specific binding (SB) SB = TB − NSB (PSMA [2]) | Total binding (TB) (PSMA [2]) | Nonspecific binding (NSB) (PSMA [2])
1 | O=C(O)CCc1ccc(O)c(CN(CCN(CC(=O)O)Cc2cc(CCC(=O)NCCCCCC(=O)NCCCC[C@H](NC(=O)N[C@@H](CCC(=O)O)C(=O)O)C(=O)O)ccc2O)CC(=O)O)c1 [Compound 1a, Glu-NH—CO—NH-Lys(Ahx)-HBED-CC, reference compound] | 16.6 ± 2.4 nM | 12.3 | 13.5 | 1.2
2 | O=C(O)CC[C@H](NC(=O)N[C@@H](CCCCNC(=O)CCCCCNC(=O)CCc1ccc(O)c(CN(CCN(CC(=O)O)Cc2cc(CCC(=O)N[C@H]3C(O)O[C@H](CO)[C@@H](O)[C@@H]3O)ccc2O)CC(=O)O)c1)C(=O)O)C(=O)O (stereo partly drawn) [Compound 1b, (3S,7S)-22-(3-(((Carboxymethyl)(2-((carboxymethyl)(2-hydroxy-5-(3-oxo-3-(((3R,4R,5S,6R)-2,4,5-trihydroxy-6-(hydroxymethyl)tetrahydro-2H-pyran-3-yl)amino)propyl)benzyl)amino)ethyl)amino)methyl)-4-hydroxyphenyl)-5,13,20-trioxo-4,6,12,19-tetraazadocosane-1,3,7-tricarboxylic acid] | 53.3 ± 30.9 nM | 8.8 | 10.8 | 2.0
3 | O=C(O)CC[C@H](NC(=O)N[C@@H](CCCCNC(=O)CCCCCNC(=O)CCc1ccc(O)c(CN(CCN(CC(=O)O)Cc2cc(CCC(=O)NCC(=O)O)ccc2O)CC(=O)O)c1)C(=O)O)C(=O)O [Compound 1c, (3S,7S)-22-(3-(((Carboxymethyl)(2-((carboxymethyl)(5-(3-((carboxymethyl)amino)-3-oxopropyl)-2-hydroxybenzyl)amino)ethyl)amino)methyl)-4-hydroxyphenyl)-5,13,20-trioxo-4,6,12,19-tetraazadocosane-1,3,7-tricarboxylic acid] | 25.6 ± 9.4 nM | 11.8 | 13.4 | 1.6
4 | C[C@H](NC(=O)CCc1ccc(O)c(CN(CCN(CC(=O)O)Cc2cc(CCC(=O)NCCCCCC(=O)NCCCC[C@H](NC(=O)N[C@@H](CCC(=O)O)C(=O)O)C(=O)O)ccc2O)CC(=O)O)c1)C(=O)O [Compound 1d, (3S,7S)-22-(3-(((2-((5-(3-(((S)-1-Carboxyethyl)amino)-3-oxopropyl)-2-hydroxybenzyl)(carboxymethyl)amino)ethyl)(carboxymethyl)amino)methyl)-4-hydroxyphenyl)-5,13,20-trioxo-4,6,12,19-tetraazadocosane-1,3,7-tricarboxylic acid] | 26.8 ± 6.3 nM | 11.2 | 12.6 | 1.4
5 | O=C(O)CC[C@H](NC(=O)N[C@@H](CCCCNC(=O)CCCCCNC(=O)CCc1ccc(O)c(CN(CCN(CC(=O)O)Cc2cc(CCC(=O)N[C@@H](CC(=O)O)C(=O)O)ccc2O)CC(=O)O)c1)C(=O)O)C(=O)O [Compound 1e, (3S,7S)-22-(3-(((Carboxymethyl)(2-((carboxymethyl)(5-(3-(((S)-1,2-dicarboxyethyl)amino)-3-oxopropyl)-2-hydroxybenzyl)amino)ethyl)amino)methyl)-4-hydroxyphenyl)-5,13,20-trioxo-4,6,12,19-tetraazadocosane-1,3,7-tricarboxylic acid] | 29.5 ± 11 nM | 13.2 | 14.8 | 1.6
6 | O=C(O)CC[C@H](NC(=O)CCc1ccc(O)c(CN(CCN(CC(=O)O)Cc2cc(CCC(=O)NCCCCCC(=O)NCCCC[C@H](NC(=O)N[C@@H](CCC(=O)O)C(=O)O)C(=O)O)ccc2O)CC(=O)O)c1)C(=O)O [Compound 1f, (3S,7S)-22-(3-(((Carboxymethyl)(2-((carboxymethyl)(5-(3-(((S)-1,3-dicarboxypropyl)amino)-3-oxopropyl)-2-hydroxybenzyl)amino)ethyl)amino)methyl)-4-hydroxyphenyl)-5,13,20-trioxo-4,6,12,19-tetraazadocosane-1,3,7-tricarboxylic acid] | 37.2 ± 18.6 nM | 12.0 | 13.5 | 1.5
7 | O=C(O)CC[C@H](NC(=O)N[C@@H](CCCCNC(=O)CCCCCNC(=O)CCc1ccc(O)c(CN(CCN(CC(=O)O)Cc2cc(CCC(=O)NCCNC(=O)CN3CCN(CC(=O)O)CCN(CC(=O)O)CCN(CC(=O)O)CC3)ccc2O)CC(=O)O)c1)C(=O)O)C(=O)O [Compound 1g, (3S,7S)-22-(3-(((carboxymethyl)(2-((carboxymethyl)(2-hydroxy-5-(3-oxo-3-((2-(2-(4,7,10-tris(carboxymethyl)-1,4,7,10-tetraazacyclododecan-1-yl)acetamido)ethyl)amino)propyl)benzyl)amino)ethyl)amino)methyl)-4-hydroxyphenyl)-5,13,20-trioxo-4,6,12,19-tetraazadocosane-1,3,7-tricarboxylic acid] | 70.2 ± 29.1 nM | 9.0 | 10.5 | 1.5
8 | O=C(O)CCc1ccc(O)c(CN(CCN(CC(=O)O)Cc2nc(CCC(=O)NCCCCCC(=O)NCCCC[C@H](NC(=O)N[C@@H](CCC(=O)O)C(=O)O)C(=O)O)ccc2O)CC(=O)O)n1 [Compound 2, (3S,7S)-22-(6-(((2-(((6-(2-Carboxyethyl)-3-hydroxypyridin-2-yl)methyl) (carboxymethyl)amino)ethyl)(carboxymethyl)amino)methyl)-5-hydroxypyridin-2-yl)-5,13,20-trioxo-4,6,12,19-tetraazadocosane-1,3,7-tricarboxylic acid] | 40.4 ± 18.3 nM | 4.1 | 9.2 | 5.1
9 | O=C(O)CC[C@H](NC(=O)N[C@@H](CCCCNC(=O)CCCCCNC(=O)CCc1ccc(O)c(CN(CCN(CC(=O)O)Cc2nc(CCC(=O)NCCCCCC(=O)NCCCC[C@H](NC(=O)N[C@@H](CCC(=O)O)C(=O)O)C(=O)O)ccc2O)CC(=O)O)n1)C(=O)O)C(=O)O [Compound 3, (3S,3′S,7S,7′S)-22,22′-(6,6′-((Ethane-1,2-diylbis((carboxymethyl)azanediyl))bis(methylene))bis(5-hydroxypyridine-6,2-diyl))bis(5,13,20-trioxo-4,6,12,19-tetraazadocosane-1,3,7-tricarboxylic acid)] | 132 ± 11 nM | 5.8 | 10.0 | 4.2
10 | O=C(O)CCc1ccc(O)c(CN(CCN(CC(=O)O)Cc2cc(CCC(=O)NCCCCCC(=O)NCCCC[C@H](NC(=O)N[C@@H](CCC(=O)O)C(=O)O)C(=O)O)ccc2O)CC(=O)O)n1 [Compound 4a, (3S,7S)-22-(3-(((2-(((6-(2-Carboxyethyl)-3-hydroxypyridin-2-yl)methyl)(carboxymethyl)amino)ethyl)(carboxymethyl)amino)methyl)-4-hydroxyphenyl)-5,13,20-trioxo-4,6,12,19-tetraazadocosane-1,3,7-tricarboxylic acid] | 67.4 ± 30.3 nM | 12.0 | 13.4 | 1.4
11 | O=C(O)CCc1ccc(O)c(CN(CCN(CC(=O)O)Cc2nc(CCC(=O)NCCCCCC(=O)NCCCC[C@H](NC(=O)N[C@@H](CCC(=O)O)C(=O)O)C(=O)O)ccc2O)CC(=O)O)c1 [Compound 4b, (3S,7S)-22-(6-(((2-((5-(2-Carboxyethyl)-2-hydroxybenzyl)(carboxymethyl)amino)ethyl) (carboxymethyl)amino)methyl)-5-hydroxypyridin-2-yl)-5,13,20-trioxo-4,6,12,19-tetraazadocosane-1,3,7-tricarboxylic acid] | 40.5 ± 20.5 nM | 8.8 | 10.3 | 1.5
12 | O=C(O)CC[C@H](NC(=O)N[C@@H](CCCCNC(=O)[C@H](Cc1ccccc1)NC(=O)COc1ccc(C[C@H](NC(=O)CNC(=O)CN2CCN(CC(=O)O)CCN(CC(=O)O)CCN(CC(=O)O)CC2)C(=O)O)cc1)C(=O)O)C(=O)O [Compound 5a, (4S,11S,15S)-4-Benzyl-1-(4-((S)-2-carboxy-2-(2-(2-(4,7,10-tris(carboxymethyl)-1,4,7,10-tetraazacyclododecan-1-yl)acetamido)acetamido)ethyl)phenoxy)-2,5,13-trioxo-3,6,12,14-tetraazaheptadecane-11,15,17-tricarboxylic acid.] | 36.1 ± 18.1 nM | 2.83 | 3.30 | 0.47
13 | O=C(O)CCc1ccc2c(c1)C[N+]13CC[N+]45CC(=O)[O][Ga-3]14([O]C(=O)C3)([O]2)[O]c1ccc(CCC(=O)NCC(=O)N[C@@H](Cc2ccc(OCC(=O)N[C@@H](Cc3ccccc3)C(=O)NCCCC[C@H](NC(=O)N[C@@H](CCC(=O)O)C(=O)O)C(=O)O)cc2)C(=O)O)cc1C5 (stereo partly shown) [[^natGa]5b] | 16.5 ± 3.1 nM | – | – | –
